Molecular target: SARS-COV-2 3CLpro/Mpro protease (Severe acute respiratory syndrome coronavirus 2 (2019-nCoV) (SARS-CoV-2), UniProt P0DTD1)
Experiment: Inhibitory effect on SARS-COV-2 3CLpro/Mpro protease by fluorescence resonance energy transfer
Format: biochemical
Conditions: activity intervals A-D, read-out: IC50 (nM), Inhibition on SARS-CoV-2 3CLpro/Mpro protease

Row | Structure (SMILES) | IC50
1 | CNc1cncc(C(=O)N2C[C@H](Nc3c(C(=O)N4C[C@@H](C)O[C@@H](C)C4)cc(Br)cc3[N+](=O)[O-])C[C@H]2C(=O)Nc2cn(C)c(=O)cc2Cl)c1 [Example 410] | 100 to 200 nM
2 | CNc1cncc(C(=O)N2C[C@H](Nc3c(C(=O)N4CCCC(F)(F)C4)cc(Br)cc3[N+](=O)[O-])C[C@H]2C(=O)Nc2nn(C)cc2Br)c1 [Example 411] | 50 to 100 nM
3 | CNc1cncc(C(=O)N2C[C@H](Nc3c(C(=O)N4C[C@@H](C)O[C@@H](C)C4)cc(Br)cc3[N+](=O)[O-])C[C@H]2C(=O)Nc2cn(C)nc2Br)c1 [Example 412] | 50 to 100 nM
4 | CNc1cncc(C(=O)N2C[C@H](Nc3c(C(=O)N4C[C@@H](C)O[C@@H](C)C4)cc(Br)cc3[N+](=O)[O-])C[C@H]2C(=O)NC2CN(CCOC)C2)c1 [Example 413] | 100 to 200 nM
5 | CNc1cncc(C(=O)N2C[C@H](Nc3c(C(=O)N4C[C@@H](C)O[C@@H](C)C4)cc(Br)cc3[N+](=O)[O-])C[C@H]2C#Cc2ccn(C)n2)c1 [Example 414] | 100 to 200 nM
6 | CNc1cncc(C(=O)N2C[C@H](Nc3c(C(=O)N4C[C@@H](C)O[C@@H](C)C4)cc(Br)cc3[N+](=O)[O-])C[C@H]2C(=O)Nc2ccnc(F)c2)c1 [Example 415] | 50 to 100 nM
7 | CNc1cncc(C(=O)N2C[C@H](Nc3c(C(=O)N4C[C@@H](C)O[C@@H](C)C4)cc(Br)cc3[N+](=O)[O-])C[C@H]2C(=O)Nc2ccc(C(F)(F)F)nc2)c1 [Example 416] | 100 to 200 nM
8 | CNc1cncc(C(=O)N2C[C@H](Nc3c(C(=O)N4C[C@@H](C)O[C@@H](C)C4)cc(Br)cc3[N+](=O)[O-])C[C@H]2C(=O)Nc2nn(CC(F)(F)F)cc2Br)c1 [Example 417] | 50 to 100 nM
9 | CNc1cncc(C(=O)N2C[C@H](Nc3c(C(=O)N4C[C@@H](C)O[C@@H](C)C4)cc(Br)cc3[N+](=O)[O-])C[C@H]2C(=O)Nc2nn(CCOC)cc2Br)c1 [Example 418, (2S,4R)-4-((4-bromo-2-((2R,6S)-2,6-dimethylmorpholin-4-carbonyl)-6-nitrophenyl)amino)-1-(5-(methylamino)nicotinoyl)-N-(4-bromo-1-(2-methoxyethyl)-1H-pyrazol-3-yl) pyrrolidine-2-formamide] | 50 to 100 nM
10 | CNc1cncc(C(=O)N2C[C@H](Nc3c(C(=O)N4C[C@@H](C)O[C@@H](C)C4)cc(Br)cc3[N+](=O)[O-])C[C@H]2C(=O)NCc2ccnc(C(F)(F)F)c2)c1 [Example 419] | 50 to 100 nM
11 | CNc1cncc(C(=O)N2C[C@H](Nc3c(C(=O)N4C[C@@H](C)O[C@@H](C)C4)cc(Br)cc3[N+](=O)[O-])C[C@H]2C(=O)Nc2nn(C3CC3)cc2Br)c1 [Example 420] | 50 to 100 nM
12 | CNc1cncc(C(=O)N2C[C@H](Nc3c(C(=O)N4C[C@@H](C)O[C@@H](C)C4)cc(Br)cc3[N+](=O)[O-])C[C@H]2C(=O)N[C@@H]2COC(=O)C2)c1 [Example 421] | 100 to 200 nM
13 | CO[C@H]1CN(C(=O)c2cncc3[nH]ccc23)C[C@@H]1Nc1c(C(=O)N2C[C@@H](C)O[C@@H](C)C2)cc(Br)cc1[N+](=O)[O-] [Example 423] | 10 to 50 nM
14 | CNc1cncc(C(=O)N2C[C@H](Nc3c(C(=O)N4C[C@@H](C)O[C@@H](C)C4)cc(Br)cc3[N+](=O)[O-])C[C@H]2C(=O)Nc2nn(-c3cccnc3)cc2Br)c1 [Example 424] | 50 to 100 nM
15 | CNc1cncc(C(=O)N2C[C@H](Nc3c(C(=O)N4C[C@@H](C)O[C@@H](C)C4)cc(Br)cc3[N+](=O)[O-])C[C@H]2C(=O)Nc2ccc3nn(C)cc3c2Cl)c1 [Example 425] | 100 to 200 nM
16 | CNc1cncc(C(=O)N2C[C@H](Nc3c(C(=O)N4C[C@@H](C)O[C@@H](C)C4)cc(Br)cc3[N+](=O)[O-])C[C@H]2C(=O)NCc2ccnc(F)c2)c1 [Example 426] | 100 to 200 nM
17 | CNc1cncc(C(=O)N2C[C@H](Nc3c(C(=O)N4C[C@@H](C)O[C@@H](C)C4)cc(Br)cc3[N+](=O)[O-])C[C@H]2C(=O)Nc2ccnc(C(F)(F)F)c2)c1 [Example 427, (2S,4R)-4-((4-bromo-2-((2R,6S)-2,6-dimethylmorpholin-4-carbonyl)-6-nitrophenyl)amino)-1-(5-(methylamino)nicotinoyl)-N-(2-(trifluoromethyl)pyridin-4-yl) pyrrolidine-2-formamide] | 100 to 200 nM
18 | CNc1cncc(C(=O)N2C[C@H](Nc3c(C(=O)N4C[C@@H](C)O[C@@H](C)C4)cc(Br)cc3[N+](=O)[O-])C[C@H]2C(=O)Nc2ccnc(C(F)(F)F)n2)c1 [Example 428] | 50 to 100 nM

Row | Structure (SMILES) | IC50
19 | CNc1cncc(C(=O)N2C[C@H](Nc3c(C(=O)N4C[C@@H](C)O[C@@H](C)C4)cc(Br)cc3[N+](=O)[O-])C[C@H]2C(=O)Nc2cc3nn(C)cc3cc2Cl)c1 [Example 429] | 100 to 200 nM
20 | CNc1cncc(C(=O)N2C[C@H](Nc3c(C(=O)N4C[C@@H](C)O[C@@H](C)C4)cc(Br)cc3[N+](=O)[O-])C[C@H]2C(=O)NCc2ccnc(NC)c2)c1 [Example 430] | 100 to 200 nM
21 | CNc1cncc(C(=O)N2C[C@H](Nc3c(C(=O)N4C[C@@H](C)O[C@@H](C)C4)cc(Br)cc3[N+](=O)[O-])C[C@H]2C(=O)NCc2ccnc(C(F)F)c2)c1 [Example 431] | 50 to 100 nM
22 | CNc1cncc(C(=O)N2C[C@H](Nc3c(C(=O)N4C[C@@H](C)O[C@@H](C)C4)cc(Br)cc3[N+](=O)[O-])C[C@H]2C(=O)NC2C[C@@H](C)O[C@@H](C)C2)c1 (stereo partly drawn) [Example 433] | 100 to 200 nM
23 | CNc1cncc(C(=O)N2C[C@H](Nc3c(C(=O)N4C[C@@H](C)O[C@@H](C)C4)cc(Br)cc3[N+](=O)[O-])C[C@H]2C(=O)N[C@H]2CC[C@@H](OC)C2)c1 [Example 434, (2S,4R)-4-((4-bromo-2-((2R,6S)-2,6-dimethylmorpholin-4-carbonyl)-6-nitrophenyl)amino)-N-((1S,3R)-3-methoxycyclopentyl)-1-(5-(methylamino)nicotinoyl) pyrrolidine-2-formamide] | 100 to 200 nM
24 | CNc1cncc(C(=O)N2C[C@H](Nc3c(C(=O)N4C[C@@H](C)O[C@@H](C)C4)cc(Br)cc3[N+](=O)[O-])C[C@H]2C(=O)Nc2ccc3c(cnn3C)c2Cl)c1 [Example 435] | 50 to 100 nM
25 | CNc1cncc(C(=O)N2C[C@H](Nc3c(C(=O)N4C[C@@H](C)O[C@@H](C)C4)cc(Br)cc3[N+](=O)[O-])C[C@H]2C(=O)Nc2cc(C(F)(F)F)ncn2)c1 [Example 436, (2S,4R)-4-((4-bromo-2-((2R,6S)-2,6-dimethylmorpholin-4-carbonyl)-6-nitrophenyl)amino)-1-(5-(methylamino)nicotinoyl)-N-(6-(trifluoromethyl)pyrimidin-4-yl) pyrrolidine-2-formamide] | 50 to 100 nM
26 | CNc1cncc(C(=O)N2C[C@H](Nc3c(C(=O)N4C[C@@H](C)O[C@@H](C)C4)cc(Br)cc3[N+](=O)[O-])C[C@H]2C(=O)N[C@H]2CC(=O)N(C)C2)c1 [Example 437] | 50 to 100 nM
27 | CNc1cncc(C(=O)N2C[C@H](Nc3c(C(=O)N4C[C@@H](C)O[C@@H](C)C4)cc(Br)cc3[N+](=O)[O-])C[C@H]2C(=O)Nc2nn(C3C[C@@H](C)O[C@@H](C)C3)cc2Br)c1 (stereo partly drawn) [Example 438] | 10 to 50 nM
28 | CO[C@H]1CN(C(=O)c2cncc3[nH]nc(C)c23)C[C@@H]1Nc1c(C(=O)N2C[C@@H](C)O[C@@H](C)C2)cc(Br)cc1[N+](=O)[O-] [Example 439, (5-Bromo-2-(((3S,4S)-4-methoxy-1-(3-methyl-1H-pyrazolo[3,4-c]pyridin-4-carbonyl)pyrrolidin-3-yl)amino)-3-nitrophenyl)((2S,6R)-2,6-dimethylmorpholinyl)methanone] | 10 to 50 nM
29 | CNc1cncc(C(=O)N2C[C@H](Nc3c(-c4nnn(C)n4)cc(Br)cc3[N+](=O)[O-])[C@@H](OC)C2)c1 [Example 440, ((3S,4S)-3-((4-bromo-2-(2-methyl-2H-tetrazol-5-yl)-6-nitrophenyl)amino)-4-methoxypyrrolidin-1-yl)(5-(methylamino)pyridin-3-yl)methanone] | 50 to 100 nM
30 | CNc1cncc(C(=O)N2C[C@H](Nc3c(C(=O)N4C[C@@H](C)O[C@@H](C)C4)cc(Br)cc3[N+](=O)[O-])C[C@H]2C(=O)Nc2cc(Cl)ncn2)c1 [Example 441, (2S,4R)-4-((4-bromo-2-((2R,6S)-2,6-dimethylmorpholin-4-carbonyl)-6-nitrophenyl)amino)-N-(6-chloropyrimidin-4-yl)-1-(5-(methylamino)nicotinoyl) pyrrolidine-2-formamide] | 10 to 50 nM
31 | CNc1cncc(C(=O)N2C[C@H](Nc3c(C(=O)N4C[C@@H](C)O[C@@H](C)C4)cc(Br)cc3[N+](=O)[O-])C[C@H]2C(=O)Nc2ccnc(Cl)n2)c1 [Example 442, (2S,4R)-4-((4-bromo-2-((2R,6S)-2,6-dimethylmorpholin-4-carbonyl)-6-nitrophenyl)amino)-N-(2-chloropyrimidin-4-yl)-1-(5-(methylamino)nicotinoyl) pyrrolidine-2-formamide] | 10 to 50 nM
32 | [2H]C([2H])([2H])Nc1cncc(C(=O)N2C[C@H](Nc3c(C(=O)N4C[C@@H](C)O[C@@H](C)C4)cc(Br)cc3[N+](=O)[O-])[C@@H](OC)C2)c1 [Example 443] | 10 to 50 nM
33 | CO[C@H]1CN(C(=O)c2cncc3[nH]nc(Cl)c23)C[C@@H]1Nc1c(C(=O)N2C[C@@H](C)O[C@@H](C)C2)cc(Br)cc1[N+](=O)[O-] [Example 444, (5-Bromo-2-(((3S,4S)-1-(3-chloro-1H-pyrazolo[3,4-c]pyridin-4-carbonyl)-4-methoxypyrrolidin-3-yl)amino)-3-nitrophenyl)((2S,6R)-2,6-dimethylmorpholinyl)methanone] | 10 to 50 nM
34 | CNc1cncc(C(=O)N2C[C@H](Nc3c(C(=O)N4C[C@@H](C)O[C@@H](C)C4)cc(Br)cc3[N+](=O)[O-])C[C@H]2C(=O)Nc2ncc(Br)cn2)c1 [Example 445, (2S,4R)-4-((4-bromo-2-((2R,6S)-2,6-dimethylmorpholin-4-carbonyl)-6-nitrophenyl)amino)-N-(5-bromopyrimidin-2-yl)-1-(5-(methylamino)nicotinoyl) pyrrolidine-2-formamide] | 50 to 100 nM
35 | CNc1cncc(C(=O)N2C[C@H](Nc3c(C(=O)N4C[C@@H](C)O[C@@H](C)C4)cc(Br)cc3[N+](=O)[O-])C[C@@H](OCCOC)C2)c1 [Example 446] | 10 to 50 nM
36 | CNc1cncc(C(=O)N2C[C@H](Nc3c(C(=O)N4C[C@@H](C)O[C@@H](C)C4)cc(Br)cc3[N+](=O)[O-])C[C@H]2COC)c1 [Example 447] | 50 to 100 nM
